Values quoted from earlier work in patent US7704724B1 (priority 2006, dated 2010).
pKi: −log10 of the molar value.

Tests used:
[1] = biological target: urease from Klebsiella aerogenes (Klebsiella aerogenes, UniProt P18314); settings: read-out: fluoride inhibition constant (Ki)
Jack Bean urease = Jack Bean urease (Canavalia ensiformis, UniProt P07374); settings: read-out: fluoride inhibition constant (Ki)
Chain of Jack Bean urease (P07374 whole entry, looked up): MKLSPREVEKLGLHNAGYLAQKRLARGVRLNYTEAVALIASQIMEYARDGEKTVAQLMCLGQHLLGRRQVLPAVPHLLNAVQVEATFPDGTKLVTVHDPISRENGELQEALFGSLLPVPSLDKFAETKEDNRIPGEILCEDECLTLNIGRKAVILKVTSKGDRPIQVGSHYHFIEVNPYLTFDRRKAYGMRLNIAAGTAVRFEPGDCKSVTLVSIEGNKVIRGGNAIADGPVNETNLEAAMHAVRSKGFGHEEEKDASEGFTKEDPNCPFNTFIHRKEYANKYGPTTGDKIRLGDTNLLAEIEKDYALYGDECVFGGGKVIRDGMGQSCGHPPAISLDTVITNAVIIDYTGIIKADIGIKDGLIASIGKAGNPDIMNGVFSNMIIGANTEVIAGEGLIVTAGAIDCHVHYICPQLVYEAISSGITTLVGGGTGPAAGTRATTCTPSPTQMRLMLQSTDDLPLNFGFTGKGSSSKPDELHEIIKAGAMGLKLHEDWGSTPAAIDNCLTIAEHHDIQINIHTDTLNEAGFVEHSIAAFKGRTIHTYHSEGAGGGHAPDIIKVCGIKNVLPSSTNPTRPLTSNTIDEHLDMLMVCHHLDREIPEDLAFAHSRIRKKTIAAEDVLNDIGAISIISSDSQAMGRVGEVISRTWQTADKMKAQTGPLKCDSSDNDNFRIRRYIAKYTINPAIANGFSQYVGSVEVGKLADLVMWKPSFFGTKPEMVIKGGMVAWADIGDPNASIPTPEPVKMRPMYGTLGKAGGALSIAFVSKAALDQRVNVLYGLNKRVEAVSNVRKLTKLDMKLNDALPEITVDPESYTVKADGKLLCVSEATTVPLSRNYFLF

Chain of urease from Klebsiella aerogenes (P18314 whole entry): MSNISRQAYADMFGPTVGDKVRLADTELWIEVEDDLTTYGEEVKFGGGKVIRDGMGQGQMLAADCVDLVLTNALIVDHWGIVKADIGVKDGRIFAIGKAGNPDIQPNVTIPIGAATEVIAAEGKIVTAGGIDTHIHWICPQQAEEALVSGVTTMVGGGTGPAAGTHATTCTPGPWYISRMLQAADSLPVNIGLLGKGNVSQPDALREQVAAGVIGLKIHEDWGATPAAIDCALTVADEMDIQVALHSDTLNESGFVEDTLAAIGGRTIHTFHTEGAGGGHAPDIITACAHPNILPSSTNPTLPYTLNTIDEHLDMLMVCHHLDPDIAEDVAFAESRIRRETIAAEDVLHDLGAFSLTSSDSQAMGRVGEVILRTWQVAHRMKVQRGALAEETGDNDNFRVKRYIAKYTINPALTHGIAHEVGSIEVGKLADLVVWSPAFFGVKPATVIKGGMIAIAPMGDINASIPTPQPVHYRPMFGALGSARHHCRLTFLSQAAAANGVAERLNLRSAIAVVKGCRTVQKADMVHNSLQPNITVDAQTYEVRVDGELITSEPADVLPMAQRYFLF
Chain of urease from Klebsiella aerogenes (P18315 whole entry partner): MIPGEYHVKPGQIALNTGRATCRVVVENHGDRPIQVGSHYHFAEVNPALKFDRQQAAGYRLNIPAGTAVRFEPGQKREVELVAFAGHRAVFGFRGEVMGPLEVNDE
Chain of urease from Klebsiella aerogenes (P18316 whole entry partner): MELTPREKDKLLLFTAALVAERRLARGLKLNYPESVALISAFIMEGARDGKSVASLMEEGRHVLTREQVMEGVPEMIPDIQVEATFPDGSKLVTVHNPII

With `F` [fluoride] as the compound, how does the pKi [1] read?
Its pKi is 3.70.

What about the pKi (Jack Bean urease) of the same compound?
Its pKi is 3.00.
